Source: patent US20250195513A1, “DEGRADATION OF IRAK4 BY CONJUGATION OF IRAK4 INHIBITORS WITH E3 LIGASE LIGAND AND METHODS OF USE” (BeiGene, Ltd., priority 2022, published 2025)

Key:
Format in all cases: cell-based
IRAK4 [1] = biological target: T1, IRAK4 (Homo sapiens, UniProt Q9NWZ3); experiment: IRAK4 Degradation Assay (Karpas299, HTRF/TR-FRET); conditions: Karpas-299 cells; for Dmax: maximum percentage of degradation
T1 construct: endogenous in cells; host or cells: Karpas299
T1 sequence (Q9NWZ3 1-460): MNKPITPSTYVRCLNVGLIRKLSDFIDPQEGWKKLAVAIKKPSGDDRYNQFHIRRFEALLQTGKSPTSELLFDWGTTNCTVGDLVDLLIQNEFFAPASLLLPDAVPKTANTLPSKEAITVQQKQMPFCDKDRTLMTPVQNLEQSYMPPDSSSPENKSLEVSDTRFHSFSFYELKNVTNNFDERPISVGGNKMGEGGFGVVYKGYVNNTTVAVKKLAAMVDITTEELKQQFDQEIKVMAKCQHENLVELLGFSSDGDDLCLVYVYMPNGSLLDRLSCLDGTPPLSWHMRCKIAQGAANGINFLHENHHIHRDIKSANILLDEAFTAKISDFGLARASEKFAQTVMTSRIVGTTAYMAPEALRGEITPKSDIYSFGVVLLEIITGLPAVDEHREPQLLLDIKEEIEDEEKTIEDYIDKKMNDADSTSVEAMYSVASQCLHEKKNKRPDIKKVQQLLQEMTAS
Method in brief: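 Compound potency as DC50 (IC50) came from four-parameter fits of percent IRAK4 degradation. IRAK4 was measured by HTRF (665/620 nm) in lysates of Karpas299 cells seeded at 0.2 million per well. Cells had been treated with compound dilutions for 5 or 24 h.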

[2] = test system: TNF-α production in THP-1 cells; experiment: TNF-α Production Assay in THP-1 Cells (LPS stimulated); conditions: for IC50 / Emax: THP-1, 24 h; for Emax: read-out: TNF-α (THP-1) 24 h IMax
Method in brief: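 Cells (0.2 million/well) pretreated with compounds for 24 h, then stimulated with LPS at 1 μg/mL final for 24 h. TNF-α in culture supernatant quantified by TR-FRET immunoassay.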

[3] = test system: IL-6 production in human PBMC; experiment: IL-6 Production Assay in Human PBMC (LPS stimulated); conditions: for IC50 / Emax: Homo sapiens, 5 h; for Emax: read-out: IL-6 (PBMC) 5 h IMax
Method: Frozen human PBMC (AllCells) were thawed in RPMI 1640 medium (Thermo Scientific) supplemented with 10% heat-inactivated FBS (Thermo Scientific) and recovered at 37° C. overnight. The next day, PBMC were seeded into 96-well plates at the density of 0.2 million cells per well and treated with compounds for 24 h. Then lipopolysaccharide was added at the final concentration of 10 ng/mL for 5 h. Culture supernatant was collected for subsequent measurement of IL-6 concentration by a TR-FRET-based method (Degorce, François, et al. Current chemical genomics. 2009, 3: 22) as described by the manufacturer manual (Cisbio). FRET signals were measured with PHERAstar FSX reader (BMG Labtech).

IRAK4 [4] = biological target: T1, IRAK4; experiment: IRAK4 Degradation Assay with Human Serum (Karpas299, HTRF/TR-FRET); conditions: Karpas-299 in human serum, 24 hrs treatment; for DC50: read-out: IRAK4 degradtion with human serum assay DC50; for Dmax: read-out: IRAK4 degradtion with human serum assay Dmax (%)
Method in brief: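 Remaining IRAK4 measured by TR-FRET immunoassay on lysates of Karpas299 cells exposed 24 h to compound dilution series in human serum AB. DC50 derived from a Hill-slope fit of % degradation versus concentration.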

[5] = 5 h treatment, read-out: IRAK4 in Karpas-299 (5 h) Dmax (%)
[6] = 5 h treatment, read-out: IRAK4 in Karpas-299 (5 h) DC50
[7] = 24 h treatment, read-out: IRAK4 in Karpas-299 (24 h) Dmax (%)
[8] = 24 h treatment, read-out: IRAK4 in Karpas-299 (24 h) DC50
[9] = Homo sapiens, maximum inhibition

Row | SMILES | Dmax (IRAK4 [1]; [5]) [%] | DC50 (IRAK4 [1]; [6]) [nM] | Dmax (IRAK4 [1]; [7]) [%] | DC50 (IRAK4 [1]; [8]) [nM] | IC50 ([2]; Homo sapiens) [nM] | Emax [2, 9] [%] | IC50 [3] [nM] | Emax ([3]; maximum inhibition) [%] | IC50 [2] [nM] | TNF-α (THP-1) 24 h IMax ([2]; maximum inhibition) [%] | IL-6 (PBMC) 5 h IMax ([3]; maximum inhibition) [%] | DC50 (IRAK4 [4]) [nM] | Dmax (IRAK4 [4]) [%]
1 | [2H]C([2H])([2H])Oc1cc2nn([C@H]3CC[C@H](N4CCN(C(=O)C5CN(c6cc(F)c([C@H]7CCC(=O)NC7=O)c(F)c6)C5)CC4)CC3)cc2cc1NC(=O)c1cccc(C(F)(F)F)n1 [Example 165, N-(2-((1r,4r)-4-(4-(1-(4-((R)-2,6-dioxopiperidin-3-yl)-3,5-difluorophenyl)azetidine-3-carbonyl)piperazin-1-yl)cyclohexyl)-6-(methoxy-d3)-2H-indazol-5-yl)-6-(trifluoromethyl)picolinamide] | 97 | 13 | 98 | 0.7 | 73 | 82 | 7.9 | 91 | – | – | – | – | –
2 | CC(C)(O)c1cc2nc(C3CCN(C4CCN(C(=O)C5CN(c6cc(F)c([C@H]7CCC(=O)NC7=O)c(F)c6)C5)CC4)CC3)cn2cc1NC(=O)c1cccc(C(F)(F)F)n1 [Example 126, (R)—N-(2-(1′-(1-(4-(2,6-dioxopiperidin-3-yl)-3,5-difluorophenyl)azetidine-3-carbonyl)-[1,4′-bipiperidin]-4-yl)-7-(2-hydroxypropan-2-yl)imidazo[1,2-a]pyridin-6-yl)-6-(trifluoromethyl)picolinamide] | 92 | 8.4 | 99 | 1.1 | 43 | 88 | 23 | 90 | – | – | – | – | –
3 | COc1cc2nn([C@H]3CC[C@H](CN4CCN(C(=O)[C@H]5CCN(c6ccc(N7CCC(=O)NC7=O)cc6)C5)CC4)CC3)cc2cc1NC(=O)c1cccn(C2CC2)c1=O [Example 34, 1-cyclopropyl-N-(2-((1S,4r)-4-((4-((S)-1-(4-(2,4-dioxotetrahydropyrimidin-1(2H)-yl)phenyl)pyrrolidine-3-carbonyl)piperazin-1-yl)methyl)cyclohexyl)-6-methoxy-2H-indazol-5-yl)-2-oxo-1,2-dihydropyridine-3-carboxamide] | 81 | 18 | 95 | 3.6 | 77 | 72 | 18 | 85 | – | – | – | – | –
4 | CC[C@@H]1[C@H](F)C(=O)N[C@@H]1COc1nccc2cc(C(N)=O)c(OC)cc12 [PF-06650833] | – | – | – | – | – | – | – | – | 19 | 67 | <50 | – | –
5 | CC(C)(O)c1cc2nn([C@H]3CC[C@H](N4C[C@@H]5CN(CCc6cc(F)c([C@H]7CCC(=O)NC7=O)c(F)c6)C[C@H]5C4)CC3)cc2cc1NC(=O)c1ccc2cc(C#N)cnn12 [Example 362, 3-cyano-N-(2-((1S,4r)-4-((3aS,6aS)-5-(4-((R)-2,6-dioxopiperidin-3-yl)-3,5-difluorophenethyl)hexahydropyrrolo[3,4-c]pyrrol-2(1H)-yl)cyclohexyl)-6-(2-hydroxypropan-2-yl)-2H-indazol-5-yl)pyrrolo[1,2-b]pyridazine-7-carboxamide] | – | – | 98 | 2.5 | – | – | 6 | 71 | – | – | – | 5.1 | 97
6 | CC(C)(O)c1cc2nn(C3CCC(N4C[C@@H]5CN(C6CN(c7cc(F)c([C@H]8CCC(=O)NC8=O)c(F)c7)C6)C[C@H]5C4)CC3)cc2cc1NC(=O)c1ccc2cc(C#N)cnn12 (stereo partly drawn) [Example 360, 3-cyano-N-(2-((1R,4r)-4-((3aR,6aR)-5-(1-(4-((R)-2,6-dioxopiperidin-3-yl)-3,5-difluorophenyl)azetidin-3-yl)hexahydropyrrolo[3,4-c]pyrrol-2(1H)-yl)cyclohexyl)-6-(2-hydroxypropan-2-yl)-2H-indazol-5-yl)pyrrolo[1,2-b]pyridazine-7-carboxamide] | – | – | 97 | 0.6 | – | – | 0.6 | 67 | – | – | – | 1.8 | 98
